Data from patent US20210346359A1, “Use of CFTR Modulators For Treating Cerebrovascular Conditions” (Qanatpharma AG, priority 2018, published 2021).
Entries after “also recorded” stand apart in the source; their conditions may differ. Like-named read-outs stand apart in the source and are kept apart here. Blank lines part the entries; values can stand above or below the molecule they belong to.

Tests used:
[1] = system: cremaster skeletal muscle resistance arteries; experiment: Cremaster skeletal muscle resistance artery myogenic tone and phenylephrine response with CFTR inhibition in vitro; conditions: wild-type mouse arteries; in vitro 100 nmol/L for 30 minutes
Procedure: Isolation and functional assessment of resistance arteries: Mouse olfactory (a first branch of the anterior cerebral artery) and PCAs were carefully dissected, cannulated onto micropipettes, stretched to their in vivo lengths and pressurized to 45 mmHg, as previously described (3,6); mouse skeletal muscle resistance arteries were dissected from the cremaster muscle, cannulated and pressurized to 60 mmHg. All functional experiments were conducted in 3-morpholinopropanesulfonic acid (MOPS) buffered saline at 37° C. with no perfusion. […]
Myogenic responses were elicited by step-wise 20 mmHg increases in transmural pressure from 20 mmHg to 80 mmHg (olfactory arteries) or 100 mmHg (posterior cerebral arteries and cremaster skeletal muscle resistance arteries). At each pressure step, vessel diameter (diaactive) was measured once a steady state was reached (5 min). Vessels requiring treatment (e.g., CFTR(inh)-172) were incubated with the reagent in MOPS for 30 min and myogenic responses were then assessed in the presence of that reagent. Following completion of all diaactive measurements, MOPS buffer was replaced with a Ca^2+-free version and maximal passive diameter (diamax) was recorded at each pressure step. […]

[2] = system: olfactory cerebral artery; conditions: recent observations (6); cited from earlier work
[3] = system: posterior cerebral arteries; experiment: Phenylephrine responses of isolated posterior cerebral arteries; format: in vivo, mouse; conditions: Mus musculus, posterior cerebral arteries, log scale, read-out: log EC50 of phenylephrine response (converted)
Procedure: (§1) Isolation and functional assessment of resistance arteries: Mouse olfactory (a first branch of the anterior cerebral artery) and PCAs were carefully dissected, cannulated onto micropipettes, stretched to their in vivo lengths and pressurized to 45 mmHg, as previously described (3,6); mouse skeletal muscle resistance arteries were dissected from the cremaster muscle, cannulated and pressurized to 60 mmHg. All functional experiments were conducted in 3-morpholinopropanesulfonic acid (MOPS) buffered saline at 37° C. with no perfusion. Vasomotor responses to phenylephrine (5 μmol/L for posterior cerebral arteries, 10 μmol/L for cremaster skeletal muscle arteries) provided an assessment of vessel viability at the beginning and end of each experiment. Arteries failing to show ≥25% constriction to phenylephrine were excluded.
(§2) Myogenic tone was calculated as the percent constriction in relation to the maximal diameter at each respective transmural pressure: tone (% of diamax)=[(diamax−diaactive)/diamax]×100, where diaactive is the vessel diameter in MOPS containing Ca^2+ and diamax is the diameter in Ca^2+-free MOPS. Analyses of vasomotor responses to phenylephrine used the same calculation, only in this case, diaactive represents the vessel diameter at steady state following application of the given agent and diamax represents the maximal diameter measured under Ca^2+-free conditions.

[4] = system: olfactory cerebral arteries; experiment: Phenylephrine responses of isolated olfactory cerebral arteries; format: in vivo, mouse; conditions: Mus musculus, olfactory cerebral arteries, log scale, read-out: log EC50 of phenylephrine response (converted)
Procedure: as §1, §2

[5] = biological target: T1, TNF (Mus musculus, UniProt P06804); conditions: HF and SAH models, cited from earlier work
T1 sequence (P06804 1-235): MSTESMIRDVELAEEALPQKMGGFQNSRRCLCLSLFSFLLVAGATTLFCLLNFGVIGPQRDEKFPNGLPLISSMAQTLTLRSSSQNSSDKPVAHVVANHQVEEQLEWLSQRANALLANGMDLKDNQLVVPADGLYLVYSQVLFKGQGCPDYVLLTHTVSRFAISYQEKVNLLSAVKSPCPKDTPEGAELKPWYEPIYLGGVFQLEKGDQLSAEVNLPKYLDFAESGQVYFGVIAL

Molecule: O=C(O)c1ccc(/C=C2\SC(=S)N(c3cccc(C(F)(F)F)c3)C2=O)cc1 [CFTR(inh)-172]
- cremaster skeletal muscle resistance artery myogenic tone [1]: does not affect; also recorded: not altered
- phenylephrine dose-response relationship in cremaster arteries [1]: not altered
- olfactory cerebral artery myogenic tone [2]: augments

- EC50 ([3]; CFTRΔF508 mice): 1000 nM
- EC50 ([3]; HF mice untreated): 562 nM
- EC50 ([3]; Sham (HF study)): 501 nM
- EC50 ([3]; WT littermates): 1480 nM
- EC50 ([4]; SAH untreated (C18 study)): 977 nM
- EC50 ([4]; SAH untreated (lumacaftor study)): 1170 nM
- EC50 ([4]; Sham (C18 SAH study)): 3020 nM
- EC50 ([4]; Sham (lumacaftor SAH study)): 1620 nM
Molecule: CNC[C@H](O)c1cccc(O)c1 [phenylephrine]

Molecule: etanercept
- HF- and SAH-mediated enhancement of cerebrovascular vasoconstriction (augmented myogenic tone) ([5]; earlier work (3,4,6)): eliminates
- cerebral perfusion ([5]; earlier work (3,4,6)): normalizes
- neuronal injury ([5]; earlier work (5,6)): reduces
